Literature values in patent US9040545B2, “Heterocyclyl pyrazolopyrimidine analogues as selective JAK inhibitors” (Cellzome Limited, priority 2010, dated 2015).

Tests used:
[1] = literature; cited from earlier work
[2] = literature; cited from earlier work; remark: listed apart in the source
[3] = NOD mouse, literature; cited from earlier work

Row | Compound | efficacy in an animal model of organ transplantation [1] | severity of GVHD [2] | spontaneous autoimmune diabetes development [3]
1 | C[C@@H]1CCN(C(=O)CC#N)C[C@@H]1N(C)c1ncnc2[nH]ccc12 [CP-690,550] | efficacy |  | 
2 | COc1cc2ncnc(Nc3ccc(O)cc3)c2cc1OC [JANEX-1] |  | attenuate the severity of GVHD | prevent spontaneous autoimmune diabetes development
